Test system: HeLa
Test: Cytotoxicity against human HeLa cells by MTT assay
Type: functional, cell-based

Row | Compound | IC50 [µM]
1 | CCC1=C[C@H]2CN(CCc3c([nH]c4ccccc34)[C@@](C(=O)OC)(c3cc4c(cc3OC)N(C)[C@H]3[C@@](O)(CCNC(=O)c5ccco5)[C@H](OC(C)=O)[C@]5(CC)C=CCN6CC[C@]43[C@@H]65)C2)C1 | 0.018
2 | CCC1=C[C@H]2CN(CCc3c([nH]c4ccccc34)[C@@](C(=O)OC)(c3cc4c(cc3OC)N(C)[C@H]3[C@@](O)(CCNC(=O)c5ccccc5OC)[C@H](OC(C)=O)[C@]5(CC)C=CCN6CC[C@]43[C@@H]65)C2)C1 | 0.234
3 | CCC(=O)NCC[C@@]1(O)[C@H](OC(C)=O)[C@]2(CC)C=CCN3CC[C@@]4(c5cc([C@@]6(C(=O)OC)C[C@H]7C=C(CC)CN(CCc8c6[nH]c6ccccc86)C7)c(OC)cc5N(C)[C@@H]14)[C@@H]32 | 0.11
4 | CCC1=C[C@H]2CN(CCc3c([nH]c4ccccc34)[C@@](C(=O)OC)(c3cc4c(cc3OC)N(C)[C@H]3[C@@](O)(CCNC(C)=O)[C@H](OC(C)=O)[C@]5(CC)C=CCN6CC[C@]43[C@@H]65)C2)C1 | 0.057
5 | CCC1=C[C@H]2CN(CCc3c([nH]c4ccccc34)[C@@](C(=O)OC)(c3cc4c(cc3OC)N(C)[C@H]3[C@@](O)(CCNC(=O)CC(C)C)[C@H](OC(C)=O)[C@]5(CC)C=CCN6CC[C@]43[C@@H]65)C2)C1 | 0.185
6 | CCC1=C[C@H]2CN(CCc3c([nH]c4ccccc34)[C@@](C(=O)OC)(c3cc4c(cc3OC)N(C)[C@H]3[C@@](O)(CCNC(=O)C(C)C)[C@H](OC(C)=O)[C@]5(CC)C=CCN6CC[C@]43[C@@H]65)C2)C1 | 0.026
7 | CCC1=C[C@H]2CN(CCc3c([nH]c4ccccc34)[C@@](C(=O)OC)(c3cc4c(cc3OC)N(C)[C@H]3[C@@](O)(CCNC(=O)c5ccccc5F)[C@H](OC(C)=O)[C@]5(CC)C=CCN6CC[C@]43[C@@H]65)C2)C1 | 0.247
8 | CCC1=C[C@@H]2CN(C1)Cc1c([nH]c3ccccc13)[C@@](C(=O)OC)(c1cc3c(cc1OC)N(C)[C@H]1[C@@](O)(C(=O)OC)[C@H](OC(C)=O)[C@]4(CC)C=CCN5CC[C@]31[C@@H]54)C2 [VINORELBINE] | 0.027
9 | CCC1=C[C@H]2CN(CCc3c([nH]c4ccccc34)[C@@](C(=O)OC)(c3cc4c(cc3OC)N(C)[C@H]3[C@@](O)(CCNC(=O)c5ccc(C)cc5)[C@H](OC(C)=O)[C@]5(CC)C=CCN6CC[C@]43[C@@H]65)C2)C1 | 0.259
10 | CCC1=C[C@H]2CN(CCc3c([nH]c4ccccc34)[C@@](C(=O)OC)(c3cc4c(cc3OC)N(C)[C@H]3[C@@](O)(CCNC(=O)c5ccccc5)[C@H](OC(C)=O)[C@]5(CC)C=CCN6CC[C@]43[C@@H]65)C2)C1 | 0.107
11 | CCC1=C[C@H]2CN(CCc3c([nH]c4ccccc34)[C@@](C(=O)OC)(c3cc4c(cc3OC)N(C)[C@H]3[C@@](O)(CCNC(=O)c5cccc(OC)c5)[C@H](OC(C)=O)[C@]5(CC)C=CCN6CC[C@]43[C@@H]65)C2)C1 | 0.169
12 | CCC1=C[C@H]2CN(CCc3c([nH]c4ccccc34)[C@@](C(=O)OC)(c3cc4c(cc3OC)N(C)[C@H]3[C@@](O)(CCNC(=O)C5CC5)[C@H](OC(C)=O)[C@]5(CC)C=CCN6CC[C@]43[C@@H]65)C2)C1 | 0.142

— ChEMBL document CHEMBL2177090, “Ceric ammonium nitrate-promoted oxidative coupling reaction for the synthesis and evaluation of a series of anti-tumor amide anhydrovinblastine analogs” (Bioorg Med Chem Lett, 2012)
